Data on 1 compound can be found in PubChem BioAssay AID624028 (Vanderbilt Specialized Chemistry Center, 2012).

The target of this test is Metabotropic glutamate receptor 3 (Rattus norvegicus) (UniProt P31422). Description: PubChem AID 624028. Particulars: TREx293 mGlu3/Galpha15, calcium fluorescence, antagonist mode.
Sequence of Metabotropic glutamate receptor 3 (Rattus norvegicus) (P31422 whole entry, looked up): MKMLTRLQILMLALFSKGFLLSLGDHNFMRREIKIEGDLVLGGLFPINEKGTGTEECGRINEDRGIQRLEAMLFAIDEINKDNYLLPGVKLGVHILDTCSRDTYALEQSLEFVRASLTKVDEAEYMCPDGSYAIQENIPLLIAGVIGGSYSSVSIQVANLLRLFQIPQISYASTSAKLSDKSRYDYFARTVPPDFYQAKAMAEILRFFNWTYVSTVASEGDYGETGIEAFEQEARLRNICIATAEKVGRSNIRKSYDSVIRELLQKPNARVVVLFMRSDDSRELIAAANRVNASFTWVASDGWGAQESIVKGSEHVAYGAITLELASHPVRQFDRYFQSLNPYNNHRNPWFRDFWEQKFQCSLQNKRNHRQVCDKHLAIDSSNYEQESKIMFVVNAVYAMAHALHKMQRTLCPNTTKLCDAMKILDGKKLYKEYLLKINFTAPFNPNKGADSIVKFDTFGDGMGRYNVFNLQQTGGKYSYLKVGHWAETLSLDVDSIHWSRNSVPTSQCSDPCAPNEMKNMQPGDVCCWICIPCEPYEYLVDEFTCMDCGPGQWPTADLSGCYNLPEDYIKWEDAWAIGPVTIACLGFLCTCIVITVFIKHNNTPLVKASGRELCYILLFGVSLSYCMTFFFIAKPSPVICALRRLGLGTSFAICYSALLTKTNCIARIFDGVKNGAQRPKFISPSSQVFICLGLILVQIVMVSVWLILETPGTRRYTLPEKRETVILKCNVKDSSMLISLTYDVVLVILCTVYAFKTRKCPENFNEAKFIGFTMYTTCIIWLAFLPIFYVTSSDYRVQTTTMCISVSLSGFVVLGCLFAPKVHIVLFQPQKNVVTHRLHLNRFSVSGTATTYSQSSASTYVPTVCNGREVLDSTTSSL

The term IC50 denotes the point on the concentration scale where inhibition reaches its midpoint. As to `COc1ccc(C#Cc2ccc(C(=O)N3CCC[C@@H](CO)C3)cc2)cc1`, the half-inhibitory concentration (IC50) was 650 nM.
